Measured values: patent US20260062422A1 (Halda Therapeutics OpCo, Inc., priority 2022, published 2026)

Assays:
BRD4-BD2 = target: T1, BRD4-BD2 (Homo sapiens, UniProt O60885); test: bromoKdELECT assay for binding affinity to BRD4-BD2; conditions: Table 7
T1 construct: made in house; host or cells: T7 phage grown in an E. coli host derived from BL21
Method: Compounds were tested using a bromoKdELECT assay. T7 phage strains displaying bromodomains were grown in parallel in 24-well blocks in an E. coli host derived from the BL21 strain. E. coli were grown to log-phase and infected with T7 phage from a frozen stock (multiplicity of infection=0.4) and incubated with shaking at 32° C. until lysis (90-150 minutes). The lysates were centrifuged (5,000×g) and filtered (0.2 μm) to remove cell debris. Streptavidin-coated magnetic beads were treated with biotinylated small molecule or acetylated peptide ligands for 30 minutes at room temperature to generate affinity resins for bromodomain assays. The liganded beads were blocked with excess biotin and washed with blocking buffer (SeaBlock (Pierce), 1% BSA, 0.05% Tween 20, 1 mM DTT) to remove unbound ligand and to reduce nonspecific phage binding. Binding reactions were assembled by combining bromodomains, liganded affinity beads, and test compounds in 1× binding buffer (17% SeaBlock, 0.33×PBS, 0.04% Tween 20, 0.02% BSA, 0.004% Sodium azide, 7.4 mM DTT). Test compounds were prepared as 1000× stocks in 100% DMSO. Kds were determined using an 11-point 3-fold compound dilution series with one DMSO control point. All compounds for Kd measurements are distributed by acoustic transfer (non-contact dispensing) in 100% DMSO. The compounds were then diluted directly into the assays such that the final concentration of DMSO was 0.09%. All reactions performed in polypropylene 384-well plates. Each was a final volume of 0.02 ml. The assay plates were incubated at room temperature with shaking for 1 hour and the affinity beads were washed with wash buffer (1×PBS, 0.05% Tween 20). The beads were then resuspended in elution buffer (1×PBS, 0.05% Tween 20, 2 μM non-biotinylated affinity ligand) and incubated at room temperature with shaking for 30 minutes. The bromodomain concentration in the eluates was measured by qPCR.

androgen receptor = target: T2, androgen receptor (Homo sapiens, UniProt P10275); test: Assay for binding affinity to androgen receptor ([3H]methyltrienolone radioligand, cell cytosol); conditions: 1 nM [3H]methyltrienolone, 24 hours at 4° C., Table 5
T2 sequence (P10275 1-920 T878A): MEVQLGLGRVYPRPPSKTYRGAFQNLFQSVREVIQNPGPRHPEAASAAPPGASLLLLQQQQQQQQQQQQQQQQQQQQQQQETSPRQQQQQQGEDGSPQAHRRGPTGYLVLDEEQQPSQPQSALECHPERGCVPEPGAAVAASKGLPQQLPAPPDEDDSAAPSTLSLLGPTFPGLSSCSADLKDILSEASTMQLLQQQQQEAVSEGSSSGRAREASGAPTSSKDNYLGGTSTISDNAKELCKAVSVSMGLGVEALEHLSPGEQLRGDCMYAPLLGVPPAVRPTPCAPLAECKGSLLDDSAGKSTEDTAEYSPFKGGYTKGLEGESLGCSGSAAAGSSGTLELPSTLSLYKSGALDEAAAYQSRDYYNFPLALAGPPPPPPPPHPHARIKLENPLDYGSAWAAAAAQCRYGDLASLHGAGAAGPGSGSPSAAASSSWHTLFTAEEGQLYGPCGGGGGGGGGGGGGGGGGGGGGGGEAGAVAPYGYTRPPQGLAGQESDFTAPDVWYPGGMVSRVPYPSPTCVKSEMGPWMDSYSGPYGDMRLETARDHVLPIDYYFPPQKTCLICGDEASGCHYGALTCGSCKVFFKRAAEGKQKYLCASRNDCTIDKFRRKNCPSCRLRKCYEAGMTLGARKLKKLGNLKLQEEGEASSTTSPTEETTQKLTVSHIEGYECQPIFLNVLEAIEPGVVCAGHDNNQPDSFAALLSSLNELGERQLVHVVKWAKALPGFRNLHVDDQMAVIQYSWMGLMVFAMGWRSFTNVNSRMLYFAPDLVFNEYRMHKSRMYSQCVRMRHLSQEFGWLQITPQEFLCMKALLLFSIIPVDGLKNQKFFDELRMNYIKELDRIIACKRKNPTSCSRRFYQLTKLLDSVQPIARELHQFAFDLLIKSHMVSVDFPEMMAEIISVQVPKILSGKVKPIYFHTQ
Procedure, shortened: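 Competition binding in cell cytosol ([…]) with 1 nM [3H]methyltrienolone, 24 hours at 4° C, in pH 7.4 Hepes-Tris buffer with 5 μM triamcinolone acetonide; nonspecific binding defined by 1 μM testosterone. Filtration and scintillation counting; values reported as % inhibition of specific binding.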

Row | Kd (BRD4-BD2) [nM] | Kd (androgen receptor) [nM] | SMILES
1 | < 50 | < 50 | Cc1sc2c(c1C)C(c1ccc(Cl)cc1)=N[C@@H](CC(=O)NCCOCCOCCOC1CCN(c3ncc(C(=O)N[C@H]4C(C)(C)[C@H](Oc5ccc(C#N)c(Cl)c5)C4(C)C)cn3)CC1)c1nnc(C)n1-2 [Compound I-7]
2 | 500 to 2500 | < 50 | CCNC(=O)C[C@@H]1N=C(c2ccc(N3CCC(OC4CCN(c5ncc(C(=O)N[C@H]6C(C)(C)[C@H](Oc7ccc(C#N)c(Cl)c7)C6(C)C)cn5)CC4)CC3)cc2)c2c(sc(C)c2C)-n2c(C)nnc21 [Compound I-114]
3 | 50 to 500 | < 50 | CCNC(=O)C[C@@H]1N=C(c2ccc(N3CCN(CC4CCN(c5ncc(C(=O)N[C@H]6C(C)(C)[C@H](Oc7ccc(C#N)c(Cl)c7)C6(C)C)cn5)CC4)CC3)cc2)c2c(sc(C)c2C)-n2c(C)nnc21 [Compound I-105, N-[3-(3-chloro-4-cyano-phenoxy)-2,2,4,4-tetramethyl-cyclobutyl]-2-[4-[[4-[4-[(9S)-9-[2-(ethylamino)-2-oxo-ethyl]-4,5,13-trimethyl-3-thia-1,8,11,12-tetrazatricyclo[8.3.0.02,6]trideca-2(6),4,7,10,12-pentaen-7-yl]phenyl]piperazin-1-yl]methyl]-1-piperidyl]pyrimidine-5-carboxamide]
4 | 50 to 500 |  | CCNC(=O)C[C@@H]1N=C(c2ccc(N(C)C3CN(CC4CCN(c5ncc(C(=O)N[C@H]6C(C)(C)[C@H](Oc7ccc(C#N)c(Cl)c7)C6(C)C)cn5)CC4)C3)cc2)c2c(sc(C)c2C)-n2c(C)nnc21 [Compound I-119]
5 | 500 to 2500 |  | CCNC(=O)C[C@@H]1N=C(c2ccc(N(C)CCN3CCN(c4ncc(C(=O)N[C@H]5C(C)(C)[C@H](Oc6ccc(C#N)c(Cl)c6)C5(C)C)cn4)CC3)cc2)c2c(sc(C)c2C)-n2c(C)nnc21 [Compound I-108]
6 | 500 to 2500 |  | CCN(C)C(=O)C[C@@H]1N=C(c2ccc(OCCOC3CCN(c4ncc(C(=O)N[C@H]5C(C)(C)[C@H](Oc6ccc(C#N)c(Cl)c6)C5(C)C)cn4)CC3)cc2)c2c(sc(C)c2C)-n2c(C)nnc21 [Compound I-66]
7 | 50 to 500 |  | CCNC(=O)C[C@@H]1N=C(c2ccc(OCCOC3CCN(c4ncc(C(=O)N[C@H]5C(C)(C)[C@H](Oc6ccc(C#N)c(Cl)c6)C5(C)C)cn4)CC3)cc2F)c2c(sc(C)c2C)-n2c(C)nnc21 [Compound I-75]
8 | > 2500 |  | Cc1sc2c(c1C)C(c1ccc(OCCOC3CCN(c4ncc(C(=O)N[C@H]5C(C)(C)[C@H](Oc6ccc(C#N)c(Cl)c6)C5(C)C)cn4)CC3)cc1)=N[C@@H](CC(=O)OC(C)(C)C)c1nnc(C)n1-2 [Compound I-235, tert-butyl 2-((S)-4-(4-(2-((1-(5-(((1r,3r)-3-(3-chloro-4-cyanophenoxy)-2,2,4,4-tetramethylcyclobutyl)carbamoyl)pyrimidin-2-yl)piperidin-4-yl)oxy)ethoxy)phenyl)-2,3,9-trimethyl-6H-thieno[3,2-f][1,2,4]triazolo[4,3-a][1,4]diazepin-6-yl)acetate]
9 | 500 to 2500 |  | Cc1sc2c(c1C)C(c1ccc(CCCOC3CCN(c4ncc(C(=O)N[C@H]5C(C)(C)[C@H](Oc6ccc(C#N)c(Cl)c6)C5(C)C)cn4)CC3)cc1)=N[C@@H](CC(=O)NC(C)C)c1nnc(C)n1-2 [Compound I-100]
10 | < 50 | < 50 | CCNC(=O)C[C@@H]1N=C(c2ccc(OCC3CN(c4ncc(C(=O)N[C@H]5C(C)(C)[C@H](Oc6ccc(C#N)c(Cl)c6)C5(C)C)cn4)C3)cc2)c2c(sc(C)c2C)-n2c(C)nnc21 [Compound I-71]
11 | > 2500 |  | COCC[C@@H]1N=C(c2ccc(CCCOC3CCN(c4ncc(C(=O)N[C@H]5C(C)(C)[C@H](Oc6ccc(C#N)c(Cl)c6)C5(C)C)cn4)CC3)cc2)c2c(sc(C)c2C)-n2c(C)nnc21 [Compound I-227, N-[3-(3-chloro-4-cyano-phenoxy)-2,2,4,4-tetramethyl-cyclobutyl]-2-[4-[3-[4-[(9S)-9-(2-methoxyethyl)-4,5,13-trimethyl-3-thia-1,8,11,12-tetrazatricyclo[8.3.0.02,6]trideca-2(6),4,7,10,12-pentaen-7-yl]phenyl]propoxy]-1-piperidyl]pyrimidine-5-carboxamide]
12 | > 2500 |  | CCN(C)C(=O)C[C@@H]1N=C(c2ccc(CCCOC3CCN(c4ncc(C(=O)N[C@H]5C(C)(C)[C@H](Oc6ccc(C#N)c(Cl)c6)C5(C)C)cn4)CC3)cc2)c2c(sc(C)c2C)-n2c(C)nnc21 [Compound I-101]
